Columns and labels:
Format in all cases: in vivo
[1] = system: Johnsongrass (Sorghum halepense, SORHA); assay: Pre-emerge greenhouse herbicide test, phytotoxicity rating; settings: 14 days after application, rating scale 0-100
Procedure, shortened: (§1)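 Seeds sown in sandy loam one day before track-sprayer application of acetone solutions at 125–1000 g ai/ha (187 l/ha), then surface-watered to incorporate and bottom-watered. Injury scored visually at 14 days on a 0–100 scale (0 no damage, 100 complete death).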

[2] = system: barnyardgrass (Echinochloa crusgalli, ECHCG); assay: as above; settings: 14 days after application, rating scale 0-100
Procedure, shortened: as §1

[3] = system: common ragweed (Ambrosia artemisiifolia L., AMBEL); assay: as above; settings: 14 days after application, rating scale 0-100
Procedure, shortened: as §1

[4] = system: green foxtail (Setaria viridis, SETVI); assay: as above; settings: 14 days after application, rating scale 0-100
Procedure, shortened: as §1

[5] = system: ivyleaf morningglory (Ipomoea hederacea, IPOHE); assay: as above; settings: 14 days after application, rating scale 0-100
Procedure, shortened: as §1

[6] = system: lambsquarters (Chenopodium album, CHEAL); assay: as above; settings: 14 days after application, rating scale 0-100
Procedure, shortened: as §1

[7] = system: large crabgrass (Digitaria sanguinalis, DIGSA); assay: as above; settings: 14 days after application, rating scale 0-100
Procedure, shortened: as §1

[8] = system: redroot pigweed (Amaranthus retroflexus, AMARE); assay: as above; settings: 14 days after application, rating scale 0-100
Procedure, shortened: as §1

[9] = system: sicklepod (Cassia obtusifolia, CASOB); assay: as above; settings: 14 days after application, rating scale 0-100
Procedure, shortened: as §1

[10] = system: velvetleaf (Abutilon theophrasti, ABUTH); assay: as above; settings: 14 days after application, rating scale 0-100
Procedure, shortened: as §1

[11] = system: field corn (Zea mays L., var. Dekalb 535, CORN); assay: Pre-emerge greenhouse test, crop damage rating; settings: 14 days after application, rating scale 0-100
Procedure, shortened: as §1

[12] = system: upland rice (Oryza sp., var.Tebonnet, RICE); assay: Pre-emerge greenhouse test, crop damage rating; settings: 14 days after application, rating scale 0-100
Procedure, shortened: as §1

[13] = system: soybean (Glycine max L., var. Pella 86, SOY); assay: Pre-emerge greenhouse test, crop damage rating; set-up: key to SOY crop damage rating: 0 = no damage, 100 = complete death of all plants; settings: 14 days after application, rating scale 0-100
Procedure, shortened: as §1

[14] = system: common ragweed (Ambrosia artemisiifolia L., AMBEL); assay: Post-emerge greenhouse herbicide test, phytotoxicity rating; settings: 14 days after application, scale 0-100
Procedure, shortened: (§2)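 Plants at the 2-3 leaf stage, sown 8-21 days earlier, were track-sprayed post-emergence with compound in acetone plus 0.25% v/v non-ionic surfactant at 63-1000 g ai/ha (187 l/ha). Damage was rated at 14 days on a 0-100 scale (0 none, 100 all plants dead), for both crop injury and weed control.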

[15] = system: Johnsongrass (Sorghum halepense, SORHA); assay: as above; settings: 14 days after application, scale 0-100
Procedure, shortened: as §2

[16] = system: barnyardgrass (Echinochloa crusgalli, ECHCG); assay: as above; settings: 14 days after application, scale 0-100
Procedure, shortened: as §2

[17] = system: green foxtail (Setaria viridis, SETVI); assay: as above; settings: 14 days after application, scale 0-100
Procedure, shortened: as §2

[18] = system: ivyleaf morningglory (Ipomoea hederacea, IPOHE); assay: as above; settings: 14 days after application, scale 0-100
Procedure, shortened: as §2

[19] = system: lambsquarters (Chenopodium album, CHEAL); assay: as above; settings: 14 days after application, scale 0-100
Procedure, shortened: as §2

[20] = system: large crabgrass (Digitaria sanguinalis, DIGSA); assay: as above; settings: 14 days after application, scale 0-100
Procedure, shortened: as §2

[21] = system: redroot pigweed (Amaranthus retroflexus, AMARE); assay: as above; settings: 14 days after application, scale 0-100
Procedure, shortened: as §2

[22] = system: sicklepod (Cassia obtusifolia, CASOB); assay: as above; settings: 14 days after application, scale 0-100
Procedure, shortened: as §2

[23] = system: velvetleaf (Abutilon theophrasti, ABUTH); assay: as above; settings: 14 days after application, scale 0-100
Procedure, shortened: as §2

[24] = system: field corn (Zea mays L., var. Dekalb 535, CORN); assay: Post-emerge greenhouse test, crop damage rating; settings: 14 days after application, scale 0-100
Procedure, shortened: as §2

[25] = system: upland rice (Oryza sp., var.Tebonnet, RICE); assay: Post-emerge greenhouse test, crop damage rating; settings: 14 days after application, scale 0-100
Procedure, shortened: as §2

[26] = system: soybean (Glycine max L., var. Pella 86, SOY); assay: Post-emerge greenhouse test, crop damage rating; set-up: key to crop damage rating SOY: 0-100 scale: 0 = no damage, 100 = complete death of all plants; settings: 14 days after application, scale 0-100
Procedure, shortened: as §2

Compound: N#Cc1ccc(Oc2cc(-n3c(=O)n4n(c3=S)CCCC4)c(F)cc2Cl)nc1 [Compound 8-22]
- SORHA phytotoxicity rating ([1]; Rate 125 g al/ha): 0
- SORHA phytotoxicity rating ([1]; Rate 500 g al/ha): 20
- ECHCG phytotoxicity rating ([2]; Rate 125 g al/ha): 0
- ECHCG phytotoxicity rating ([2]; Rate 500 g al/ha): 30
- AMBEL phytotoxicity rating ([3]; Rate 125 g al/ha): 100
- AMBEL phytotoxicity rating ([3]; Rate 500 g al/ha): 100
- SETVI phytotoxicity rating ([4]; Rate 125 g al/ha): 40
- SETVI phytotoxicity rating ([4]; Rate 500 g al/ha): 100
- IPOHE phytotoxicity rating ([5]; Rate 125 g al/ha): 40
- IPOHE phytotoxicity rating ([5]; Rate 500 g al/ha): 10
- CHEAL phytotoxicity rating ([6]; Rate 125 g al/ha): 100
- CHEAL phytotoxicity rating ([6]; Rate 500 g al/ha): 100
- DIGSA phytotoxicity rating ([7]; Rate 125 g al/ha): 20
- DIGSA phytotoxicity rating ([7]; Rate 500 g al/ha): 90
- AMARE phytotoxicity rating ([8]; Rate 125 g al/ha): 100
- AMARE phytotoxicity rating ([8]; Rate 500 g al/ha): 100
- CASOB phytotoxicity rating ([9]; Rate 125 g al/ha): 20
- CASOB phytotoxicity rating ([9]; Rate 500 g al/ha): 90
- ABUTH phytotoxicity rating ([10]; Rate 125 g al/ha): 100
- ABUTH phytotoxicity rating ([10]; Rate 500 g al/ha): 100
- CORN crop damage rating ([11]; Rate 125 g al/ha): 0
- CORN crop damage rating ([11]; Rate 500 g al/ha): 60
- RICE crop damage rating ([12]; Rate 125 g al/ha): 0
- RICE crop damage rating ([12]; Rate 500 g al/ha): 40
- SOY crop damage rating ([13]; Rate 125 g al/ha): 50
- SOY crop damage rating ([13]; Rate 500 g al/ha): 70
- phytotoxicity rating AMBEL ([14]; rate 63 g ai/ha): 80
- phytotoxicity rating AMBEL ([14]; rate 500 g ai/ha): 100
- phytotoxicity rating SORHA ([15]; rate 63 g ai/ha): 0
- phytotoxicity rating SORHA ([15]; rate 500 g ai/ha): 30
- phytotoxicity rating ECHCG ([16]; rate 63 g ai/ha): 10
- phytotoxicity rating ECHCG ([16]; rate 500 g ai/ha): 30
- phytotoxicity rating SETVI ([17]; rate 63 g ai/ha): 20
- phytotoxicity rating SETVI ([17]; rate 500 g ai/ha): 75
- phytotoxicity rating IPOHE ([18]; rate 63 g ai/ha): 80
- phytotoxicity rating IPOHE ([18]; rate 500 g ai/ha): 100
- phytotoxicity rating CHEAL ([19]; rate 63 g ai/ha): 100
- phytotoxicity rating CHEAL ([19]; rate 500 g ai/ha): 100
- phytotoxicity rating DIGSA ([20]; rate 63 g ai/ha): 0
- phytotoxicity rating DIGSA ([20]; rate 500 g ai/ha): 30
- phytotoxicity rating AMARE ([21]; rate 63 g ai/ha): 95
- phytotoxicity rating AMARE ([21]; rate 500 g ai/ha): 100
- phytotoxicity rating CASOB ([22]; rate 63 g ai/ha): 50
- phytotoxicity rating CASOB ([22]; rate 500 g ai/ha): 80
- phytotoxicity rating ABUTH ([23]; rate 63 g ai/ha): 100
- phytotoxicity rating ABUTH ([23]; rate 500 g ai/ha): 100
- crop damage rating CORN ([24]; rate 63 g ai/ha): 53
- crop damage rating CORN ([24]; rate 500 g ai/ha): 15
- crop damage rating RICE ([25]; rate 63 g ai/ha): 5
- crop damage rating RICE ([25]; rate 500 g ai/ha): 10
- crop damage rating SOY ([26]; rate 63 g ai/ha): 65
- crop damage rating SOY ([26]; rate 500 g ai/ha): 95

Compound: O=c1n(-c2cc(Oc3ccc([N+](=O)[O-])cn3)c(Cl)cc2F)c(=S)n2n1CCCC2 [Compound 8-23]
- SORHA phytotoxicity rating ([1]; Rate 125 g al/ha): 0
- SORHA phytotoxicity rating ([1]; Rate 500 g al/ha): 30
- ECHCG phytotoxicity rating ([2]; Rate 125 g al/ha): 0
- ECHCG phytotoxicity rating ([2]; Rate 500 g al/ha): 10
- AMBEL phytotoxicity rating ([3]; Rate 125 g al/ha): 0
- AMBEL phytotoxicity rating ([3]; Rate 500 g al/ha): 60
- SETVI phytotoxicity rating ([4]; Rate 125 g al/ha): 10
- SETVI phytotoxicity rating ([4]; Rate 500 g al/ha): 100
- IPOHE phytotoxicity rating ([5]; Rate 125 g al/ha): 30
- IPOHE phytotoxicity rating ([5]; Rate 500 g al/ha): 60
- CHEAL phytotoxicity rating ([6]; Rate 125 g al/ha): 100
- CHEAL phytotoxicity rating ([6]; Rate 500 g al/ha): 100
- DIGSA phytotoxicity rating ([7]; Rate 125 g al/ha): 0
- DIGSA phytotoxicity rating ([7]; Rate 500 g al/ha): 50
- AMARE phytotoxicity rating ([8]; Rate 125 g al/ha): 90
- AMARE phytotoxicity rating ([8]; Rate 500 g al/ha): 100
- CASOB phytotoxicity rating ([9]; Rate 125 g al/ha): 0
- CASOB phytotoxicity rating ([9]; Rate 500 g al/ha): 50
- ABUTH phytotoxicity rating ([10]; Rate 125 g al/ha): 95
- ABUTH phytotoxicity rating ([10]; Rate 500 g al/ha): 100
- CORN crop damage rating ([11]; Rate 125 g al/ha): 0
- CORN crop damage rating ([11]; Rate 500 g al/ha): 0
- RICE crop damage rating ([12]; Rate 125 g al/ha): 0
- RICE crop damage rating ([12]; Rate 500 g al/ha): 0
- SOY crop damage rating ([13]; Rate 125 g al/ha): 0
- SOY crop damage rating ([13]; Rate 500 g al/ha): 20
- phytotoxicity rating AMBEL ([14]; rate 63 g ai/ha): 50
- phytotoxicity rating AMBEL ([14]; rate 500 g ai/ha): 100
- phytotoxicity rating SORHA ([15]; rate 63 g ai/ha): 0
- phytotoxicity rating SORHA ([15]; rate 500 g ai/ha): 20
- phytotoxicity rating ECHCG ([16]; rate 63 g ai/ha): 0
- phytotoxicity rating ECHCG ([16]; rate 500 g ai/ha): 0
- phytotoxicity rating SETVI ([17]; rate 63 g ai/ha): 0
- phytotoxicity rating SETVI ([17]; rate 500 g ai/ha): 20
- phytotoxicity rating IPOHE ([18]; rate 63 g ai/ha): 50
- phytotoxicity rating IPOHE ([18]; rate 500 g ai/ha): 100
- phytotoxicity rating CHEAL ([19]; rate 63 g ai/ha): 95
- phytotoxicity rating CHEAL ([19]; rate 500 g ai/ha): 99
- phytotoxicity rating DIGSA ([20]; rate 63 g ai/ha): 0
- phytotoxicity rating DIGSA ([20]; rate 500 g ai/ha): 0
- phytotoxicity rating AMARE ([21]; rate 63 g ai/ha): 95
- phytotoxicity rating AMARE ([21]; rate 500 g ai/ha): 99
- phytotoxicity rating CASOB ([22]; rate 63 g ai/ha): 70
- phytotoxicity rating CASOB ([22]; rate 500 g ai/ha): 100
- phytotoxicity rating ABUTH ([23]; rate 63 g ai/ha): 100
- phytotoxicity rating ABUTH ([23]; rate 500 g ai/ha): 100
- crop damage rating CORN ([24]; rate 63 g ai/ha): 0
- crop damage rating CORN ([24]; rate 500 g ai/ha): 5
- crop damage rating RICE ([25]; rate 63 g ai/ha): 0
- crop damage rating RICE ([25]; rate 500 g ai/ha): 0
- crop damage rating SOY ([26]; rate 63 g ai/ha): 25
- crop damage rating SOY ([26]; rate 500 g ai/ha): 60
